What follows are compounds tested on HCV 1b-Con-1 replicon (assay: HCV 1b-Con-1 replicon assay (luciferase reporter gene, HuH-7 cells)). Conditions: Hepatitis C virus, Huh-7, luciferase reporter gene activity in the replicon, in the presence of 5% FBS.
Assay type: cell-based, Hepatitis C virus (HCV) genotype 1b-Con1

`COC(=O)N[C@H](C(=O)N1CCC[C@H]1C(=O)Nc1ccc(CN(Cc2ccc(NC(=O)[C@@H]3CCCN3C(=O)[C@@H](NC(=O)OC)C(C)(C)C)cc2)C2CCCC2)cc1)C(C)(C)C` [Example 29, dimethyl[(cyclopentylimino)bis{methanediylbenzene-4,1-diylcarbamoyl(2S)pyrrolidine-2,1-diyl[(2S)-3,3-dimethyl-1-oxobutane-1,2-diyl]}]biscarbamate] and `COC(=O)N[C@H](C(=O)N1CCC[C@H]1C(=O)Nc1ccc(CN(Cc2ccc(NC(=O)[C@@H]3CCCN3C(=O)[C@@H](NC(=O)OC)C(C)(C)C)cc2)C(C)C)cc1)C(C)(C)C` [Example 30, dimethyl ([(1-methylethyl)imino]bis{methanediylbenzene-4,1-diylcarbamoyl(2S)pyrrolidine-2,1-diyl[(2S)-3,3-dimethyl-1-oxobutane-1,2-diyl]})biscarbamate] fall in the same range of EC50: 100 to 250 nM for the first, 100 to 250 nM for the second.

First: CC(C)(C)[C@@H](C(=O)N1CCC[C@H]1C(=O)Nc1ccc(CN(Cc2ccc(NC(=O)[C@@H]3CCCN3C(=O)[C@@H](N3CCNC3=O)C(C)(C)C)cc2)c2ccccc2)cc1)N1CCNC1=O [Example 31, (2S,2′S)-N,N′-[(phenylimino)bis(methanediylbenzene-4,1-diyl)]bis{1-[(2S)-3,3-dimethyl-2-(2-oxoimidazolidin-1-yl)butanoyl]pyrrolidine-2-carboxamide}]
Second: CC(C)[C@@H](C(=O)N1CCC[C@H]1C(=O)Nc1ccc(CN(Cc2ccc(NC(=O)[C@@H]3CCCN3C(=O)[C@H](C(C)C)N3CCCNC3=O)cc2)c2ccccc2)cc1)N1CCCNC1=O [Example 36, (2S,2′S)-N,N′-[(phenylimino)bis(methanediylbenzene-4,1-diyl)]bis {1-[(2S)-3-methyl-2-(2-oxotetrahydropyrimidin-1(2H)-yl)butanoyl]pyrrolidine-2-carboxamide}]
The EC50 of the first is lower: under 1 nM for the first, 1 to 10 nM for the second. The first is the more potent here.

Compared with `COCCN(Cc1ccc(NC(=O)[C@@H]2CCCN2C(=O)[C@@H](NC(=O)OC)C(C)(C)C)cc1)Cc1ccc(NC(=O)[C@@H]2CCCN2C(=O)[C@@H](NC(=O)OC)C(C)(C)C)cc1` [Example 32, dimethyl ([(2-methoxyethyl)imino]bis{methanediylbenzene-4,1-diylcarbamoyl(2S)pyrrolidine-2,1-diyl[(2S)-3,3-dimethyl-1-oxobutane-1,2-diyl]})biscarbamate], `COC(=O)N[C@H](C(=O)N1CCC[C@H]1C(=O)Nc1ccc(CN(Cc2ccc(NC(=O)[C@@H]3CCCN3C(=O)[C@@H](NC(=O)OC)C(C)(C)C)cc2)c2ccon2)cc1)C(C)(C)C` [Example 33, dimethyl[(isoxazol-3-ylimino)bis{methanediylbenzene-4,1-diylcarbamoyl(2S)pyrrolidine-2,1-diyl[(2S)-3,3-dimethyl-1-oxobutane-1,2-diyl]}]biscarbamate] is lower in EC50: 100 to 250 nM for the first, 1 to 10 nM for the second. The second is the more potent here.

`COC(=O)N[C@H](C(=O)N1CCC[C@H]1c1nc2ccc(CN(Cc3ccc4nc([C@@H]5CCCN5C(=O)[C@@H](NC(=O)OC)C(C)(C)O)[nH]c4c3)c3ccccc3)cc2[nH]1)C(C)(C)O` [Example 34, methyl [(1S)-2-hydroxy-1-{[(2S)-2-(6-{[({2-[(2S)-1-{(2S)-3-hydroxy-2-[(methoxycarbonyl)amino]-3-methylbutanoyl}pyrrolidin-2-yl]-1H-benzimidazol-6-yl}methyl)(phenyl)amino]methyl}-1H-benzimidazol-2-yl)pyrrolidin-1-yl]carbonyl}-2-methylpropyl]carbamate] and `COC(=O)N[C@H](C(=O)N1CCC[C@H]1c1nc2ccc(CN(Cc3ccc4nc([C@@H]5CCCN5C(=O)[C@@H](NC(=O)OC)[C@@H](C)O)[nH]c4c3)c3ccccc3)cc2[nH]1)[C@@H](C)O` [Example 35, methyl [(1S,2R)-2-hydroxy-1-{[(2S)-2-(6-{[({2-[(2S)-1-{(2S,3R)-3-hydroxy-2-[(methoxycarbonyl)amino]butanoyl}pyrrolidin-2-yl]-1H-benzimidazol-6-yl}methyl)(phenyl)amino]methyl}-1H-benzimidazol-2-yl)pyrrolidin-1-yl]carbonyl}propyl]carbamate] cannot be ordered by EC50: under 1 nM for the first, under 1 nM for the second.

`C=CC[C@H](NC(=O)OC)C(=O)N1CCC[C@H]1C(=O)Nc1ccc(CN(Cc2ccc(NC(=O)[C@@H]3CCCN3C(=O)[C@H](CC=C)NC(=O)OC)cc2)c2ccccc2)cc1` [Example 37, dimethyl [(phenylimino)bis{methanediylbenzene-4,1-diylcarbamoyl(2S)pyrrolidine-2,1-diyl[(4S)-5-oxopent-1-ene-5,4-diyl]}]biscarbamate] and `CC[C@H](NC(=O)OC)C(=O)N1CCC[C@H]1C(=O)Nc1ccc(CN(Cc2ccc(NC(=O)[C@@H]3CCCN3C(=O)[C@H](CC)NC(=O)OC)cc2)c2ccccc2)cc1` [Example 38, dimethyl [(phenylimino)bis{methanediylbenzene-4,1-diylcarbamoyl(2S)pyrrolidine-2,1-diyl[(2S)-1-oxobutane-1,2-diyl]}]biscarbamate] fall in the same range of EC50: 1 to 10 nM for the first, 1 to 10 nM for the second.

Compared with `COC(=O)N[C@H](C(=O)N1CCC[C@H]1C(=O)Nc1ccc(CN(Cc2ccc(NC(=O)[C@@H]3CCCN3C(=O)[C@@H](NC(=O)OC)[C@H]3CCOC3)cc2)c2ccccc2)cc1)[C@H]1CCOC1` [Example 39, dimethyl {(phenylimino)bis[methanediylbenzene-4,1-diylcarbamoyl(2S)pyrrolidine-2,1-diyl{(1S)-2-oxo-1-[(3R)-tetrahydrofuran-3-yl]ethane-2,1-diyl}]}biscarbamate], `COCC(=O)N[C@H](C(=O)N1CCC[C@H]1C(=O)Nc1ccc(CN(Cc2ccc(NC(=O)[C@@H]3CCCN3C(=O)[C@@H](NC(=O)COC)C(C)(C)C)cc2)c2ccccc2)cc1)C(C)(C)C` [Example 40, (2S,2′S)-N,N′-[(phenylimino)bis(methanediylbenzene-4,1-diyl)]bis(1-{(2S)-2-[(methoxyacetyl)amino]-3,3-dimethylbutanoyl}pyrrolidine-2-carboxamide)] is higher in EC50: under 1 nM for the first, 10 to 100 nM for the second. The first is the more potent here.

First: CC[C@H](C)[C@H](NC(=O)OC(C)(C)C)C(=O)N1CCC[C@H]1C(=O)Nc1ccc(CN(Cc2ccc(NC(=O)[C@@H]3CCCN3C(=O)[C@@H](NC(=O)OC(C)(C)C)[C@@H](C)CC)cc2)c2ccccc2)cc1 [Example 41, di-tert-butyl[(phenylimino)bis{methanediylbenzene-4,1-diylcarbamoyl(2S)pyrrolidine-2,1-diyl[(2S,3S)-3-methyl-1-oxopentane-1,2-diyl]}]biscarbamate]
Second: CC(C)[C@@H](C(=O)N1CCC[C@H]1C(=O)Nc1ccc(CN(Cc2ccc(NC(=O)[C@@H]3CCCN3C(=O)[C@H](C(C)C)N3CCCC3=O)cc2)c2ccccc2)cc1)N1CCCC1=O [Example 42, (2S,2′S)-N,N′-[(phenylimino)bis(methanediylbenzene-4,1-diyl)]bis {1-[(2S)-3-methyl-2-(2-oxopyrrolidin-1-yl)butanoyl]pyrrolidine-2-carboxamide}]
The EC50 of the first is higher: 10 to 100 nM for the first, under 1 nM for the second. The second is the more potent here.

With `CC(=O)N[C@@H](C(=O)N1CCC[C@H]1C(=O)Nc1ccc(CN(Cc2ccc(NC(=O)[C@@H]3CCCN3C(=O)[C@H](NC(C)=O)c3ccccc3)cc2)c2ccccc2)cc1)c1ccccc1` [Example 43, (2S,2′S)-N,N′-[(phenylimino)bis(methanediylbenzene-4,1-diyl)]bis{1-[(2R)-2-(acetylamino)-2-phenylacetyl]pyrrolidine-2-carboxamide}] the EC50 was under 1 nM.
